Assay results: PMC6121902, “Conjugation with Dihydrolipoic Acid Imparts Caffeic Acid Ester Potent Inhibitory Effect on Dopa Oxidase Activity of Human Tyrosinase” (International Journal of Molecular Sciences, 2018)

What was measured:
mushroom tyrosinase = system: mushroom tyrosinase; design: method as in PMID 31105178; details: same conditions as LCA; cited from earlier work
HBL cells = experiment: MTT viability assay; assay type: cell-based, human; details: 25 or 50 μM, 24 h
Protocol: The effect of the inhibitors on cell viability was evaluated by phase contrast microscopy and by means of the 3-(4,5-dimethyl-2-thiazolyl)-2,5-diphenyl-2H-tetrazolium bromide (MTT) assay. HBL cells were treated with the compounds (25 or 50 μM) for 24 h. At the end of the incubation period, phase contrast images were taken and the MTT assay was performed to test the cytotoxicity of each compound.
Figure 4 Effect of caffeic acid derivatives on the viability of HBL cells. Cells were incubated for 24 h with the inhibitors at 25 or 50 µM. (a) Phase contrast microscopy images. Representative images are shown (n = 8) Bar size: 50 μm. (b) MTT viability assay. Cells were grown in 96-well plates to ~80% confluence in the presence or absence of the indicated compounds. After 24 h, MTT was added (1 mg/mL final concentration) and maintained in the culture media for 4 h. Cells were PBS-washed twice and solubilized in DMSO. Absorbance at 562 nm was measured and represented as a percentage of the control value. The mean ± SEM of 8 independent experiments is shown. **** p < 0.0001.
Cell viability was measured by the MTT assay. HBL cells were seeded into the wells of a 96-wells plate at a density of 10,000 cells in 200 μL cell culture media. The seeded cells were incubated for 18 h at 37 °C, then treated with the compounds (25 or 50 μM) for 24 h or left untreated. At the end of the incubation period, images were taken and the MTT assay was performed to test the cytotoxicity of the different caffeic acid derivatives.

For O=C(O)/C=C/c1ccc(O)c(O)c1 [CA, caffeic acid], the “effect on tyrosinase activity” value (mushroom tyrosinase) is listed as “did not show any effect” and the “cytotoxicity (MTT)” value (HBL cells) is listed as “not cytotoxic”.
